# Data from patent US6410588B1, “Use of cannabinoids as anti-inflammatory agents” (priority 1998, dated 2002).
# Read-outs that look alike come from different tables or passages of the source.
# How the values were obtained:
# [1] = system: IL-10; test: human rheumatoid synovial cell IL-10 production (ELISA); assay type: cell-based; settings: for IL-10, mean: 48 hours culture
# Description: (§1) Synovial membrane tissue was obtained from a patient fulfilling the revised American College of Rheumatology criteria for rheumatoid arthritis who underwent joint replacement surgery. Synovial cell cultures were prepared as described. Briefly, synovial membrane tissue was digested with collagenase type A (1 mg/ml) and DNAase I (0.15 mg/ml) in RPMI 1640 containing 5% FCS for 2 hours at 37° C.
# (§2) Similarly, rheumatoid synovial cells spontaneously produce cytokines when cultured in vitro. […] With restricted number of human synovial cells in this sample, the optimal dose for inhibiting TNFα may have been missed.
# [2] = system: Thioglycollate-elicited granulocytes; test: viability of granulocytes in the ROI test; assay type: cell-based, mouse (C57BL/6)
# Description: Thioglycollate-elicited granulocytes were harvested from C57BL/6 mice by sterile lavage with PBS 18 hrs. after intraperitoneal injection with 1.5 ml thioglycollate medium (1.5 ml in 3% solution). The cells were washed and resuspended at 5×10^5 cells/ml in Hanks' buffered salt solution without phenol red, and distributed at 0.5 ml/tube into luminometer plastic tubes. […] The tube was inserted into luminometer (Biolumate LB 95 oot Berhold Wildbad Germany) which had been prewarmed to 37° C. The granulocyte luminol-enhanced chemiluminescence response to zymosan was considered as the positive control.
# [3] = system: IL-6; test: human rheumatoid synovial cell IL-6 production (ELISA); assay type: cell-based; settings: for IL-6, mean: 48 hours culture
# Description: as §1, §2
# [4] = system: animal models predictive of antipsychotic activity; settings: in vivo; cited from earlier work
# [5] = system: TNF; test: human rheumatoid synovial cell TNF production (ELISA); assay type: cell-based; settings: for TNF, mean: 48 hours culture
# Description: as §1, §2
# [6] = system: TNFα release; test: TNFα release by LPS-stimulated human PBMC; assay type: cell-based; settings: for TNF α: LPS 10 ng/ml 24 hours
# Description: CBD was dissolved in ethanol/DMSO.
# Peripheral blood mononuclear cells (PBMC) were isolated from the whole blood of healthy donors by Ficoll Hypaque gradient. […] After this 6 hour pretreatment period, the cells were stimulated with either LPS from Salmonella typhimirium, 10 ng/ml, for 24 hours (for TNF and IL-1β) or with PHA, 5 μg/ml, for 72 hours (for IFNγ) Viability of the PBMC was assessed with the MTT test.
# Human PBMC were cultured and stimulated with or without CBD, as described in Materials and Methods. The stimulus for TNF and IL-1 production was LPS, the stimulus for IFNγ production was PHA. The results are the mean of triplicate wells±SEM. ND=not done.
# [7] = system: TPA-induced erythema; settings: applied topically; cited from earlier work
# [8] = system: collagen induced arthritis (CIA)
# Description: Bovine type II collagen (CII) was purified from hyaline cartilage, as described [Williams, 1992# 18]. Male DBA/1 mice (8-12 weeks old) were immunized with 100 μg of CII emulsified in complete Freund's adjuvant CFA (Difco, Detroit, Mich.) by intradermal injection at the base of the tail. From day 15 after immunization onwards, mice were examined daily for onset of CIA using two clinical parameters: paw swelling and clinical score [Williams, PNAS, Vol. 89, pages 97848]. Paw swelling was assessed by measuring the thickness of the affected hind paws with 0-10 mm callipers (Kroeplin, Schluchtern, Germany). For the clinical score, 0=normal; 1=slight swelling and erythema; 2=pronounced edema; 3=joint rigidity. Each limb was graded, resulting in a maximal clinical score of 12 per animal. The arthritis was monitored over 10 days, after which the mice were sacrificed.
# Mice injected with vehicle alone (ethanolcremophor in saline) served as controls (n=23).
# [9] = system: IL-2; settings: cited from earlier work
# [10] = system: TNFα production; test: TNFα production by Thioglycollate induced macrophages; assay type: cell-based, mouse (C57BL/6); set-up: TNFα production, 6 h / TNFα production, 24 h: unit not given here; settings: for inhibition at 2 µg/mL / inhibition at 4 µg/mL / inhibition at 6 µg/mL: Mus musculus, Macrophage
# Excerpt: […] […] IFN-γ and IFN-α were purchased from Boehringer Mannheim, Germany.
# Thioglycoiate-elicited peritoneal macrophages from C57BL/6 mice.
# [11] = system: Legionella; settings: mouse, in vivo; cited from earlier work
# [12] = LPS 1 μg/ml + IFNγ 10 U/ml, CBD 2 μg/ml, 24 h
smiles,measurement,setting,value
"C=C(C)[C@@H]1CCC(C)=C[C@H]1c1c(O)cc(CCCCC)cc1O [CBD, Cannabidiol]",IL-10 release (in words),[1],dose-dependent inhibition
same,"IL-10, mean",[1]; CBD 0.1 μg/ml,273 pg/mL
same,"IL-10, mean",[1]; CBD 1 μg/ml,249 pg/mL
same,"IL-10, mean",[1]; CBD 20 μg/ml,52 pg/mL
same,cell viability at the end of the experiment,[2]; CBD 6 μg/ml,All cells were viable
same,cells available (viable),"[2]; after 1-2 hours of CBD treatment, 6 μg/ml",about 100%
same,IL-6 release (in words),[3],dose-dependent inhibition
same,"IL-6, mean",[3]; CBD 0.1 μg/ml,281 ng/mL
same,"IL-6, mean",[3]; CBD 1 μg/ml,326 ng/mL
same,"IL-6, mean",[3]; CBD 20 μg/ml,125 ng/mL
same,efficacy in animal models predictive of antipsychotic activity,[4],effective
same,"TNF, mean",[5]; CBD 0.1 μg/ml,1963 pg/mL
same,"TNF, mean",[5]; CBD 1 μg/ml,2089 pg/mL
same,"TNF, mean",[5]; CBD 20 μg/ml,2271 pg/mL
same,TNFa release (in words),[5]; first initial experiment,not suppressed
same,TNF α,"[6]; CBD 0.1 μg/ml, mean of triplicate wells ± SEM",2959 ± 434 pg/mL
same,TNF α,"[6]; CBD 1 μg/ml, mean ± SEM",2503 ± 181 pg/mL
same,TNF α,"[6]; CBD 2.5 μg/ml, mean ± SEM",3071 ± 296 pg/mL
same,TNF α,"[6]; CBD 5 μg/ml, mean ± SEM",4152 ± 499 pg/mL
same,TNF α,"[6]; CBD 10 μg/ml, mean ± SEM","10,964 ± 1714 pg/ml"
same,TNF α,"[6]; CBD 20 μg/ml, mean ± SEM","15,071 ± 2594 pg/ml"
same,TNF α,"[6]; CBD 30 μg/ml, mean ± SEM","20,824 ± 1046 pg/ml"
same,effect on LPS-induced TNFα release (in words),[6]; higher concentrations of CBD,increased their release
same,effect on LPS-induced TNFα release (in words),[6]; lower concentrations of CBD (0.1 to 5 μg/ml),significantly suppressed
same,TPA-induced erythema,[7],reduce TPA-induced erythema
same,"therapeutic effect on CIA (clinical score, paw thickness)",[8]; 2.5 mg/kg i.p. daily until day 10,no effect at all
same,"therapeutic effect on CIA (clinical score, paw thickness)",[8]; 10 mg/kg i.p. daily until day 10,slight therapeutic effect
same,IL-2 secretion,[9],did not affect IL-2 secretion
same,"TNFα production, 6 h","[10]; LPS 1 μg/ml + IFNγ 10 U/ml, CBD 2 μg/ml, 6 h",744
same,"% INHIBITION of TNFα production, 24 h",[10]; [12],enhanced 72%
same,"TNFα production, 24 h",[10]; [12],4578
same,"TNFα production, 6 h","[10]; LPS 1 μg/ml + IFNγ 10 U/ml, CBD 4 μg/ml, 6 h",478
same,"TNFα production, 6 h","[10]; LPS 1 μg/ml + IFNγ 10 U/ml, CBD 6 μg/ml, 6 h",548
same,"TNFα production, 24 h","[10]; LPS 1 μg/ml + IFNγ 10 U/ml, CBD 4 (μg/ml), 24 h",437
same,"TNFα production, 24 h","[10]; LPS 1 μg/ml + IFNγ 10 U/ml, CBD 6 (μg/ml), 24 h",207
same,"TNFα production, 6 h","[10]; LPS 1 μg/ml, CBD 2 μg/ml, 6 h",543
same,"TNFα production, 6 h","[10]; LPS 1 μg/ml, CBD 4 μg/ml, 6 h",271
same,"TNFα production, 6 h","[10]; LPS 1 μg/ml, CBD 6 μg/ml, 6 h",290
same,"TNFα production, 24 h","[10]; LPS 1 μg/ml, CBD 2 (μg/ml), 24 h",90
same,"TNFα production, 24 h","[10]; LPS 1 μg/ml, CBD 4 (μg/ml), 24 h",36
same,"TNFα production, 24 h","[10]; LPS 1 μg/ml, CBD 6 (μg/ml), 24 h",34
same,inhibition at 2 µg/mL,"[10]; 6 h, LPS 1 μg/ml + IFNγ 10 U/ml, CBD 2 μg/ml, 6 h, read-out: % INHIBITION of TNFα production, 6 h",0%
same,inhibition at 4 µg/mL,"[10]; 6 h, LPS 1 μg/ml + IFNγ 10 U/ml, CBD 4 μg/ml, 6 h, read-out: % INHIBITION of TNFα production, 6 h",33%
same,inhibition at 6 µg/mL,"[10]; 6 h, LPS 1 μg/ml + IFNγ 10 U/ml, CBD 6 μg/ml, 6 h, read-out: % INHIBITION of TNFα production, 6 h",24%
same,inhibition at 2 µg/mL,"[10]; 6 h, LPS 1 μg/ml, CBD 2 μg/ml, 6 h, read-out: % INHIBITION of TNFα production, 6 h",9%
same,inhibition at 4 µg/mL,"[10]; 6 h, LPS 1 μg/ml, CBD 4 μg/ml, 6 h, read-out: % INHIBITION of TNFα production, 6 h",54%
same,inhibition at 6 µg/mL,"[10]; 6 h, LPS 1 μg/ml, CBD 6 μg/ml, 6 h, read-out: % INHIBITION of TNFα production, 6 h",51%
same,inhibition at 4 µg/mL,"[10]; 24 h, LPS 1 μg/ml + IFNγ 10 U/ml, CBD 4 μg/ml, 24 h, read-out: % INHIBITION of TNFα production, 24 h",84%
same,inhibition at 6 µg/mL,"[10]; 24 h, LPS 1 μg/ml + IFNγ 10 U/ml, CBD 6 μg/ml, 24 h, read-out: % INHIBITION of TNFα production, 24 h",92%
same,inhibition at 2 µg/mL,"[10]; 24 h, LPS 1 μg/ml, CBD 2 μg/ml, 24 h, read-out: % INHIBITION of TNFα production, 24 h",67%
same,inhibition at 4 µg/mL,"[10]; 24 h, LPS 1 μg/ml, CBD 4 μg/ml, 24 h, read-out: % INHIBITION of TNFα production, 24 h",87%
same,inhibition at 6 µg/mL,"[10]; 24 h, LPS 1 μg/ml, CBD 6 μg/ml, 24 h, read-out: % INHIBITION of TNFα production, 24 h",88%
same,effect on TNFα production (in words),[10]; low concentrations of CBD,enhance TNFα production
same,effect on TNFα production (in words),[10]; summary of Table 1,inhibits TNFα production
same,mortality of mice sublethally injected with Legionella,[11],not affected
